Results: patent US7498343B2, “Mycobacterial inhibitors” (priority 2002, dated 2009)
In brackets after ≈: the same amount, converted by molar mass. Where two headings read alike, the source gives them in different places.

Assays:
M. Smegmatis ATCC607 = assay: In-vitro method for testing compounds for anti-bacterial activity against strain M. smegmatis ATCC607 (Alamar Blue growth inhibition); type: cell-based; conditions: M. smegmatis ATCC607, pIC50 = -logIC50, IC50 in M, 50% inhibitory concentration for bacterial growth, 48 hours incubation
Method in brief: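 About 250 CFU/well M. smegmatis ATCC607 in Mueller-Hinton broth exposed to five-fold serial compound dilutions, 48 h at 37 °C, humidified 5% CO2. Growth read by Alamar Blue fluorescence (ex 530/em 590 nm) after 2 h further incubation; % growth inhibition calculated.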

[1] = test system: Mycobacterium tuberculosis (strain H37RV); assay: In-vitro method for testing compounds against M. tuberculosis (resazurin growth inhibition, MIC); type: cell-based; conditions: MIC data representing IC90's, 7 days incubation, resazurin fluorescence

CN(C)CCC(O)(c1ccccc1)C(c1ccccc1)c1cnc2ccc(Br)cc2c1 (stereo not drawn) [Compound 7]
pIC50 (M. Smegmatis ATCC607): 4.6 | MIC [1]: 47.54 microgram/ml | melting point: 98 °C

COc1nc2ccc(Br)cc2cc1C(c1ccccc1)C(O)(CC[N+](C)(C)[O-])c1cccc2ccccc12 (stereo not drawn) [Compound 99]
IC50 (M. Smegmatis ATCC607; Mycolicibacterium smegmatis, ATCC607, 48 h, read-out: pIC50 (converted)): 12.6 nM | MIC ([1]; Mycobacterium tuberculosis, H37RV, 168 h, read-out: MIC): 9.06 µg/mL (≈ 15.9 µM) | melting point: 218 °C
